Blank lines part the entries; values can stand above or below the compound they belong to.
What was measured:
[1] = target: SRSF protein kinase 2 (Homo sapiens) (UniProt P78362); experiment: Selectivity interaction (KinomeScan (DiscoverX)) EUB0001049a SRPK2; conditions: at 1 µM
[2] = target: T1, Dual specificity mitogen-activated protein kinase kinase 4 (Homo sapiens) (UniProt P45985); experiment: Selectivity interaction (ActivX KiNativ screen (kinase selectivity in THP-1 cell lysates)) EUB0000639a MAP2K4; format: subcellular; conditions: lysate
T1 sequence (whole entry): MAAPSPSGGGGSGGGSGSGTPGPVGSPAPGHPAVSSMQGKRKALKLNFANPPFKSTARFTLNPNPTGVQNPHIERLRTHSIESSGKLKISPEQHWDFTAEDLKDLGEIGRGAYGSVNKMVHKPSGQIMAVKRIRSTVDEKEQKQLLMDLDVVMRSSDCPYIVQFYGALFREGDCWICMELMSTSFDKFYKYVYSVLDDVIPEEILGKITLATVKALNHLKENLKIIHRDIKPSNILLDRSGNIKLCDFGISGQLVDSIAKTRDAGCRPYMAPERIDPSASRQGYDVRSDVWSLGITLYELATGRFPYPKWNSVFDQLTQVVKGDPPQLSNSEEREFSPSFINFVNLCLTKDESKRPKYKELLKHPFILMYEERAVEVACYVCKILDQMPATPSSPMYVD

[3] = target: Mitogen-activated protein kinase kinase kinase 10 (Homo sapiens) (UniProt Q02779); experiment: Selectivity interaction (Kinase panel (Invitrogen)) EUB0000639a MAP3K10; conditions: at 200 nM
Sequence of Mitogen-activated protein kinase kinase kinase 10 (Homo sapiens) (Q02779 whole entry, looked up): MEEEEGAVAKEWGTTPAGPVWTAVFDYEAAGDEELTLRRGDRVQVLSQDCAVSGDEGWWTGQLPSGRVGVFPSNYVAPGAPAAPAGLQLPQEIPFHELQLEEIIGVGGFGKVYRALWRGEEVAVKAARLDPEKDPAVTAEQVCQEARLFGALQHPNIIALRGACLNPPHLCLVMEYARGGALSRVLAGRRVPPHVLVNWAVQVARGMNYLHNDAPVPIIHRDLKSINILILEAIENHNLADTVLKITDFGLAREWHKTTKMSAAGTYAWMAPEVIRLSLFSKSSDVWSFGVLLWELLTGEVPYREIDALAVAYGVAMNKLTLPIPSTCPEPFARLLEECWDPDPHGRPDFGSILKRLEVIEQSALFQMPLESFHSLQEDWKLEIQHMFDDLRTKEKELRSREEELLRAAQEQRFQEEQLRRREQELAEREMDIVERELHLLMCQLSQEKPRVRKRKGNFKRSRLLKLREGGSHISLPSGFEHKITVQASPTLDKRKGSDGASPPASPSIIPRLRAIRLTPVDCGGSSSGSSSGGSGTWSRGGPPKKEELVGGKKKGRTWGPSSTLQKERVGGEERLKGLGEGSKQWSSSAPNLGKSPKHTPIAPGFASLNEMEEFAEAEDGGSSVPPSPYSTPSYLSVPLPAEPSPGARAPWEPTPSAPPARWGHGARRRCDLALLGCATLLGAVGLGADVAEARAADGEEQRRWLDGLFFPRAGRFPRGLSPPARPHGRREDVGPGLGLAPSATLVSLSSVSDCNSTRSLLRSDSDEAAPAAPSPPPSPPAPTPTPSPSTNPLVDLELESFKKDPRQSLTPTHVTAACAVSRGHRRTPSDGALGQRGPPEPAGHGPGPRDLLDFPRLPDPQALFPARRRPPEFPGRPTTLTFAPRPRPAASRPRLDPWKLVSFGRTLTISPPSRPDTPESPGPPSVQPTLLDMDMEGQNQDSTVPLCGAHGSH

[4] = target: DNA (cytosine-5)-methyltransferase 3A (Homo sapiens) (UniProt Q9Y6K1); conditions: at 1 µM
Sequence of DNA (cytosine-5)-methyltransferase 3A (Homo sapiens) (Q9Y6K1 whole entry, looked up): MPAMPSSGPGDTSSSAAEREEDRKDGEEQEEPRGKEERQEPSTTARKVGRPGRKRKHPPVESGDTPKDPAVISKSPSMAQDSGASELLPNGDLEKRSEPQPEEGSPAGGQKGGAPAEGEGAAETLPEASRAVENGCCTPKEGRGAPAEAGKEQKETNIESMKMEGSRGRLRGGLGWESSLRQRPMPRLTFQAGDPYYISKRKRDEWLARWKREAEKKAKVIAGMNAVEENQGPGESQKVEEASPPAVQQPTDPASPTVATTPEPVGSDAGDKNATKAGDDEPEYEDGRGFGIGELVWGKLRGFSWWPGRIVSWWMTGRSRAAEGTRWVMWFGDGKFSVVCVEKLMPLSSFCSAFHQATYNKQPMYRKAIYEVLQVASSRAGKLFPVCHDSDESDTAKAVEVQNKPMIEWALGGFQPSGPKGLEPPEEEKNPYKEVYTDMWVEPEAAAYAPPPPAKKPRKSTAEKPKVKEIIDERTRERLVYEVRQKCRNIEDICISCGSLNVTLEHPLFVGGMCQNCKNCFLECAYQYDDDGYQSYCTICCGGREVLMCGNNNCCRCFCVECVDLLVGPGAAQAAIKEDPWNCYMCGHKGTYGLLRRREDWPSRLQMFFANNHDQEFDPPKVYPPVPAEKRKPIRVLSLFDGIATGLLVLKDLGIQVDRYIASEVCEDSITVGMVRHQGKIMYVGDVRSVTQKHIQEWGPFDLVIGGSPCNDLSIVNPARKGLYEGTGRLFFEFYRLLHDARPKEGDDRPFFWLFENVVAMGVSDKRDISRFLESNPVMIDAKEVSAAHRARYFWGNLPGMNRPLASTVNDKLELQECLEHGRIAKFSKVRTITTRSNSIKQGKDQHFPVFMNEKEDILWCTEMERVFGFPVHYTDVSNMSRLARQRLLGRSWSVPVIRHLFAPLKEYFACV

[5] = target: Receptor-interacting serine/threonine-protein kinase 3 (Homo sapiens) (UniProt Q9Y572); experiment: Selectivity interaction (LanthaScreen Eu Kinase Binding Assay) EUB0001632a RIPK3; conditions: at 10 µM
[6] = target: Microtubule-associated serine/threonine-protein kinase 1 (Homo sapiens) (UniProt Q9Y2H9); experiment: Selectivity interaction (KinomeScan (DiscoverX)) EUB0000695a MAST1; conditions: at 100 nM
Sequence of Microtubule-associated serine/threonine-protein kinase 1 (Homo sapiens) (Q9Y2H9 whole entry, looked up): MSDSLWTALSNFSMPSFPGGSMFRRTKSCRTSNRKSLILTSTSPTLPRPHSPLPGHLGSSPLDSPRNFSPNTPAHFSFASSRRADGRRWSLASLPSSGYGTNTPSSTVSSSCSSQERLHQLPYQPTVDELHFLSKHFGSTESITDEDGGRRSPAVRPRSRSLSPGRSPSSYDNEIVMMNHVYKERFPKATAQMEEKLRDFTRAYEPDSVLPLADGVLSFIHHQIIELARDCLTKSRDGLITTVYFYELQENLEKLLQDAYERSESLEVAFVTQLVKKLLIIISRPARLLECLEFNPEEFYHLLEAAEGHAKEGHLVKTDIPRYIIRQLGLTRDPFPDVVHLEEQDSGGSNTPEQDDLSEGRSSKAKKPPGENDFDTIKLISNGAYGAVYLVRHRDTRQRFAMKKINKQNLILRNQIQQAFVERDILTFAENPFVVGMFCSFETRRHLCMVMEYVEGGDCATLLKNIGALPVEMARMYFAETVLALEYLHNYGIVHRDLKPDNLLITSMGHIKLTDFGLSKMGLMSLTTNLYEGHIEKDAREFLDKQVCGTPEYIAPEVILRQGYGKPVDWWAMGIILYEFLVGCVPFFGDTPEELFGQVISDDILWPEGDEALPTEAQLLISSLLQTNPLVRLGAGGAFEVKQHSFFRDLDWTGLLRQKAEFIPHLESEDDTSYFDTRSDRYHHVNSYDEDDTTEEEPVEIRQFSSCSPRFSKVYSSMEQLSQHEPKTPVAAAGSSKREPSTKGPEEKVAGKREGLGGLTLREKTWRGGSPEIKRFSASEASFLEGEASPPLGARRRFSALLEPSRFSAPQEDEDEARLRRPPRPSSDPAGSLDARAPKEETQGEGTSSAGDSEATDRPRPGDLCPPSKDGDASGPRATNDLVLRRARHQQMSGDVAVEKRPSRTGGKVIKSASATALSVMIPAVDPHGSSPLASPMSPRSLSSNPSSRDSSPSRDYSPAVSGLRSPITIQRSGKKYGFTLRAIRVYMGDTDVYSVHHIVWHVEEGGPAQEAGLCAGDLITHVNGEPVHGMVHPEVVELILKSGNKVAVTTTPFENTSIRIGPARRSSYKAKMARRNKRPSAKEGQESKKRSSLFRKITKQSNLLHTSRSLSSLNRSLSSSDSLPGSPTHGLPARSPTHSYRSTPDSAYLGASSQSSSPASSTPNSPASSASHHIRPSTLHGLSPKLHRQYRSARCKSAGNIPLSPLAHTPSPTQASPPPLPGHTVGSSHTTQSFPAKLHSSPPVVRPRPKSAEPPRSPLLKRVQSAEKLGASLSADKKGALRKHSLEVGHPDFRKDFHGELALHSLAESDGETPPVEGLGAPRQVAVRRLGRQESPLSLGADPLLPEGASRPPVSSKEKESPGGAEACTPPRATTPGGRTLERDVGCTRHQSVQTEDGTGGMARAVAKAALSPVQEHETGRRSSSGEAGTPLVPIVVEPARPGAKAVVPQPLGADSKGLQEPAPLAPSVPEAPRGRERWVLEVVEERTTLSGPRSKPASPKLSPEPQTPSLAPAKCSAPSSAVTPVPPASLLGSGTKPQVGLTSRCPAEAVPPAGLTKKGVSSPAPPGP

[7] = target: Voltage-gated inwardly rectifying potassium channel KCNH2 (Homo sapiens, UniProt Q12809); experiment: Selectivity interaction (Panel of non-epigenetic targets (kinases, GPCRs, ion channels, and transporters, Eurofins) ) EUB0000271b KCNH2; conditions: at 1 µM
[8] = target: Tyrosine-protein kinase Lck (Homo sapiens, UniProt P06239); experiment: Selectivity interaction (Upstate Kinase Profiler service (Millipore)) EUB0000056c LCK; conditions: at 1 µM
Sequence of Tyrosine-protein kinase Lck (P06239 2-509 limits assumed): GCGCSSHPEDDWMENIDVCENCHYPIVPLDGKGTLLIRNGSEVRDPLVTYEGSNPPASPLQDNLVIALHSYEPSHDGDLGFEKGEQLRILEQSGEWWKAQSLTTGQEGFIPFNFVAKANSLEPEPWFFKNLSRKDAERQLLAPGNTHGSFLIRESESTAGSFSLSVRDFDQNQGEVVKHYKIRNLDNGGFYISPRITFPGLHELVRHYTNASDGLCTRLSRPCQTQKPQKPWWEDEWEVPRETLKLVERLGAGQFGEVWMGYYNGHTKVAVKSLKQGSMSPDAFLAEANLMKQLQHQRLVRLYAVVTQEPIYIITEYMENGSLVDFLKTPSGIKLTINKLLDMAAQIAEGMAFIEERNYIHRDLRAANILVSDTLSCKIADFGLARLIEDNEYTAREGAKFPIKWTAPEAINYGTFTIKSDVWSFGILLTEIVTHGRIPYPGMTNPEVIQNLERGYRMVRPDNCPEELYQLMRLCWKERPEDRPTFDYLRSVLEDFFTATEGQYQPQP

[9] = target: T2, Serine/threonine-protein kinase D2 (Homo sapiens) (UniProt Q9BZL6); experiment: Selectivity interaction (ActivX KiNativ screen (ex vivo kinase selectivity in human PBMCs)) EUB0001619a PRKD2; format: cell-based; conditions: PBMC, at 1 µM
T2 sequence (whole entry): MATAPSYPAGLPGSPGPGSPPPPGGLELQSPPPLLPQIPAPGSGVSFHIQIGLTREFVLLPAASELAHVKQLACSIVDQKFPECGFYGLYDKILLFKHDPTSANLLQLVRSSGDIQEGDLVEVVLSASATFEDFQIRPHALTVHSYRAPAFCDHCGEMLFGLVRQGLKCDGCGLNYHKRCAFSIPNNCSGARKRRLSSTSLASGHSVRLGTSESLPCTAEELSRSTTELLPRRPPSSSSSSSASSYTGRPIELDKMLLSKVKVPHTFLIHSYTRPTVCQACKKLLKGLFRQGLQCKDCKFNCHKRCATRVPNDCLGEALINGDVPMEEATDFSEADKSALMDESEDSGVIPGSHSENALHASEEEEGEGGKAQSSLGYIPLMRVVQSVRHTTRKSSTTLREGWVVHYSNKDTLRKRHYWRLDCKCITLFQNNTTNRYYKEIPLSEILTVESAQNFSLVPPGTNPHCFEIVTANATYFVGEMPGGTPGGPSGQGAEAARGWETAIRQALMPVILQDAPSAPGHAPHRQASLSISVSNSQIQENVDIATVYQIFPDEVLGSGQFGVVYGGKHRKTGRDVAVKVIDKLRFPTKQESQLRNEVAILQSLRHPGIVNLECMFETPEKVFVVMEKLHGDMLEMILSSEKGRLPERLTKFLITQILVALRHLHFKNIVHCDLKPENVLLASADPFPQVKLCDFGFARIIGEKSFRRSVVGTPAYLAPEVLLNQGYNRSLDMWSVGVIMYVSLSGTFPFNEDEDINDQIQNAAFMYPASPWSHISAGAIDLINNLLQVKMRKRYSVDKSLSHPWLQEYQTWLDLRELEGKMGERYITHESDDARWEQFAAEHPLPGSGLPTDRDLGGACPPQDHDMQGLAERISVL

[10] = target: T3, MAP kinase-activated protein kinase 5 (Homo sapiens) (UniProt Q8IW41); experiment: Selectivity interaction (SelectScreen profiling (Invitrogen)) EUB0000607a MAPKAPK5; conditions: at 2 µM
T3 sequence (whole entry): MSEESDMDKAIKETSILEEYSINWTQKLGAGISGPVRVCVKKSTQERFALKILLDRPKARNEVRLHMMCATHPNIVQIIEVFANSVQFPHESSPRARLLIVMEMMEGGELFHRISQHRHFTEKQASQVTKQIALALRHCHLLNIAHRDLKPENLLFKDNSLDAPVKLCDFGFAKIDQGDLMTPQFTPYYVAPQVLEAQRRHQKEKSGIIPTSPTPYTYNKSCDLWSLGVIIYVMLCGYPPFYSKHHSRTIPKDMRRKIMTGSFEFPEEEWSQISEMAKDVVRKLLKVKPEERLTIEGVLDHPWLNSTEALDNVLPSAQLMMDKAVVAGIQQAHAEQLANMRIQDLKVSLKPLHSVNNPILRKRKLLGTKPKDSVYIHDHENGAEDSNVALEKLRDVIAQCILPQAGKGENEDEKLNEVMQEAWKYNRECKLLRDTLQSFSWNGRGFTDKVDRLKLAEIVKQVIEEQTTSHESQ

[11] = target: T4, Casein kinase I isoform alpha-like (Homo sapiens) (UniProt Q8N752); experiment: Selectivity interaction (KinomeScan (DiscoverX)) EUB0000666a CSNK1A1L; conditions: at 10 µM
T4 sequence (whole entry): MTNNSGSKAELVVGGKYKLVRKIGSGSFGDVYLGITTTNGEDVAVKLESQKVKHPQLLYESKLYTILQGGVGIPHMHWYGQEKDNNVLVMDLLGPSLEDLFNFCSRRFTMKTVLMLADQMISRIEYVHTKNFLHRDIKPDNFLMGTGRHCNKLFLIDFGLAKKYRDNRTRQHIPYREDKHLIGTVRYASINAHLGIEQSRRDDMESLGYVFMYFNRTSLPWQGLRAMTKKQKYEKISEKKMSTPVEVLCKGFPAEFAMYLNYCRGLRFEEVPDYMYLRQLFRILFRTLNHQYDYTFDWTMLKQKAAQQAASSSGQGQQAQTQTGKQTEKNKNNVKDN

Sequence of SRSF protein kinase 2 (Homo sapiens) (P78362 whole entry, looked up): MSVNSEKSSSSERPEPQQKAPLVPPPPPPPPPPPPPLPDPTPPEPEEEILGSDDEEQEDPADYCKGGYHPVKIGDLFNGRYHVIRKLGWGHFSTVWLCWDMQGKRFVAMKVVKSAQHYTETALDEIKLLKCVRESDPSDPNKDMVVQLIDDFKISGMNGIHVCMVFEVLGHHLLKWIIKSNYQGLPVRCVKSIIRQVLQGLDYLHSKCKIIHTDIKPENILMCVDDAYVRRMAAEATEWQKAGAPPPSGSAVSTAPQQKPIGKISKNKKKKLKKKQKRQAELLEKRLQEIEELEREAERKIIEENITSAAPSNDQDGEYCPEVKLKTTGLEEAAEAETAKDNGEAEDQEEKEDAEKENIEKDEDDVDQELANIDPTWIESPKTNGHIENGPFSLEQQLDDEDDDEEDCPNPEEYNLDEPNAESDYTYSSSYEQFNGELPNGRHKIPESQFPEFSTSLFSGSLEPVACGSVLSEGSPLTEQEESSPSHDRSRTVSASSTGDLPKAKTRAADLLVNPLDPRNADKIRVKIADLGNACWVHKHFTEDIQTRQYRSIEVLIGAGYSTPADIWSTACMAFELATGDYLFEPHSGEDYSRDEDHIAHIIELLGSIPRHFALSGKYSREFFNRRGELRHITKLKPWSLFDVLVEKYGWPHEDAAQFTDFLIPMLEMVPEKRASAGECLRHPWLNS

SMILES: COc1cc(Nc2nc(C)cc(-c3cnn4nc(OC)ccc34)n2)cc(C(F)(F)F)c1
% of control [1]: 100%

% of inhibition ([2]; at 0.01 µM): -9.4%
% of inhibition ([2]; at 0.04 µM): -17.8%
% of inhibition ([2]; at 0.2 µM): 0.7%
% of inhibition ([2]; at 1 µM): 17.6%
% of inhibition ([2]; at 5 µM): 56.2%
% of inhibition [3]: -1.18%
SMILES: CC[C@@H]1[C@H](F)C(=O)N[C@@H]1COc1nccc2cc(C(N)=O)c(OC)cc12 [ZIMLOVISERTIB]

% activity [4]: > 90%
SMILES: CNCCN1CCC(c2cc(CN(C)C(=O)c3cccc(Oc4ccccc4)c3)ccn2)CC1

% of inhibition [5]: -15.4%
SMILES: Cn1cc(-n2cnc3c(NCc4nc5cc(Cl)c(Cl)cc5[nH]4)nc(N4CCOCC4)nc32)cn1

SMILES: Cc1cc(F)c(C(=O)Nc2cccc(-c3nncn3C(C)C)n2)cc1-n1cnc(C2CC2)c1
% of control [6]: 87%

SMILES: Cc1cc(C)cc([C@@H]2c3cc(C)ccc3NC(=O)CN2C(=O)c2ccc(Br)s2)c1
% of inhibition [7]: 0%

% of inhibition [8]: -3%
SMILES: Cc1ccc(-c2ccc3c(ccc4sc5c(c43)NC[C@@H](C)NC5=O)n2)cn1

SMILES: N#Cc1cccc(-c2c[nH]c3ncnc(N4CCOCC4)c23)c1
% of inhibition [9]: -2%

SMILES: CNC(=O)Nc1ccc(-c2nc(N3CC4CCC(C3)O4)c3cnn(C4CCC5(CC4)OCCO5)c3n2)cc1
% of inhibition [10]: 5%

SMILES: O=C(NOC[C@H](O)CO)c1ccc(F)c(F)c1Nc1ccc(I)cc1F
% of control [11]: 80%

Reference: ChEMBL document CHEMBL5465560, “Selectivity Literature for EUbOPEN Chemogenomic Library” (2024)
